This is an account of results in patent US10596118B2, “Solid dispersions” (Shionogi Inc., priority 2015, dated 2020).

Series [1] is described as follows: Solubility by shake flask method with HPLC analysis. To be noted: thermodynamic from solid. The method, then: Solubility measurements of the solid dispersions and physical mixtures were performed using a shake flask method. Individual test samples comprising about 5 mg ospemifene, 30 mg of each physical mixture, or 30 mg of each solid dispersion, were mixed with 20 mL of an aqueous media (either water alone, 0.1N HCl, or a buffered aqueous solution comprising 50 mM phosphate, pH 6.8). The sample was agitated manually for 3 hours. Following mixing, a 1.5 mL sample was withdrawn to a micro-centrifuge tube and centrifuged at 12,000 rpm for 10 min. About 1 mL of supernatant was then transferred to a HPLC vial for HPLC analysis.
The solubilities of ospemifene solid dispersions, the control physical mixtures, and ospemifene alone were determined by HPLC in water, 0.1 N HCl, or 50 mM pH 6.8 buffer using a shake flask method, as described above.

Series [2] in a line: physchem. The note with it: organic solvent or mixture, thermodynamic from solid. From the text:
In developing methods of evaluating the solubility of the various compositions produced in these studies, a common solvent was selected that was capable of dissolving both ospemifene and each of the hydrophilic carriers being evaluated. […] Thus, an incremental solvent addition method was used to estimate the solubility in methanol and ethanol co-solvent mixture.

Series [3] in a line: Micro dissolution in simulated GI fluids (FaSSIF, FeSSIF) and pH 6.8 phosphate buffer. To be noted: for solubility in FeSSIF relative to FaSSIF: FeSSIF versus FaSSIF. An excerpt: To investigate the in-vivo absorption process of ospemifene in the GI tract, a dissolution method using simulated GI fluids (FaSSIF and FeSSIF) was developed to simulate drug dissolution in-vivo. The abbreviation “FaSSIF” stands for fasted state simulated intestinal fluid, while the abbreviation “FeSSIF” stands for fed state simulated intestinal fluid. […] FaSSIF and FeSSIF media are commercially available from Biorelevant and were used according to the manufacturer's instructions.
Micro dissolution was conducted in a centrifuge vial containing 1.5 mL of dissolution medium (either FaSSIF or FeSSIF) at room temperature. […] The vials were centrifuged at 30 min, 1, 2 and 3 hour(s) at 14,000 rpm for one minute and 50 μL of supernatant was transferred to an HPLC vial and diluted with 50 μL acetonitrile and assayed by HPLC.
The detector was set at 235 nm. Two mobile phases were used, mobile phase A and mobile phase B. Mobile phase A was 800/200/40 (v/v/v) deionized water/acetonitrile/tetrahydrofuran and mobile phase B was 100% acetonitrile.
For drug content analysis, the same HPLC column and mobile phases were used but the flow rate of the mobile phases was 1 ml/min, the injection volume was 7 μL and the gradient program was as follows: […]

The conditions of series [4]: poor water solubility and high permeability.
Series [5] in a line: physchem. The note with it: water or buffered solutions, aqueous buffer.
For series [6] the following is noted: oral administration of a 60 mg dose; cited from earlier work.
For series [7] the following is noted: Sun et al., 2012; cited from earlier work.

SMILES strings stand for the structures. Converted amounts (≈) assume the structure as drawn.

A word on the solubility: it is the dissolved amount per volume that the medium holds. Take `OCCOc1ccc(/C(=C(/CCCl)c2ccccc2)c2ccccc2)cc1` [Ospemifene (OSP), ospemifene]: the solubility at 3 h in series [1] (pH 6.8, aqueous buffer) was less than 0.03 µg/mL; in series [1] (simulated gastric fluid), less than 0.03 µg/mL; in series [1] (water), 0.04 µg/mL (≈ 0.106 µM). Besides, the solubility was roughly 57000 µg/mL (≈ 150000 µM) in the series “physchem [2]” (solubility in ethanol, ethanol); roughly 67000 µg/mL (≈ 177000 µM) in the series “physchem [2]” (solubility in methanol, methanol); 45 µg/mL (≈ 119 µM) in series [3] (fessif, thermodynamic from solid); less than 10 µg/mL in series [3] (pH 6.8, aqueous buffer); less than 0.3 µg/mL in the series “physchem [5]”. In addition, in series [3] (FeSSIF and FaSSIF), the “time the amount of drug in solution remains relatively stable” value is 2 to 3 h. The “solubility in FeSSIF relative to FaSSIF” value in series [3] (listed as micronized ospemifene) was “about 4 fold”; in series [3] (listed as ospemifene alone), 2-3 fold. Further, the solubility at 2 h in series [3] (fassif, thermodynamic from solid) is 10 µg/mL (≈ 26.4 µM). Also, the BCS class entry in series [4] is recorded as “BCS class II”. The “share of total dose eliminated via the fecal route” value in series [6] is on record as 75%.

For the compound `COc1ccc2c(c1)c(CC(=O)O)c(C)n2C(=O)c1ccc(Cl)cc1` [indomethacin], the “maximum solubility enhancement observed with HPMCAS or PVP” value in series [7] is 9 fold.
